The record followed here is patent publication US20220151962A1, “NOVEL INHIBITORS OF HISTONE DEACETYLASE 10” (Deutsches Krebsforschungszentrum, priority 2019, published 2022).

For orientation: inhibition means the change of the read-out against control, counted positive when it falls.

A value given as a limit tells only on which side of the number the result lay.

Test [1] addresses T1, HDAC1 (Homo sapiens, UniProt Q13547).
T1 construct: purchased BPS Bioscience 50051
Nature of the test: HDAC1 (ZMAL) fluorogenic activity assay. The class given is biochemical. The conditions noted are these: read-out: HDAC1 (ZMAL) percent enzyme inhibition.

Test [2] has as its target T2, HDAC8 (Homo sapiens, UniProt Q9BY41).
T2 sequence (Q9BY41 1-377): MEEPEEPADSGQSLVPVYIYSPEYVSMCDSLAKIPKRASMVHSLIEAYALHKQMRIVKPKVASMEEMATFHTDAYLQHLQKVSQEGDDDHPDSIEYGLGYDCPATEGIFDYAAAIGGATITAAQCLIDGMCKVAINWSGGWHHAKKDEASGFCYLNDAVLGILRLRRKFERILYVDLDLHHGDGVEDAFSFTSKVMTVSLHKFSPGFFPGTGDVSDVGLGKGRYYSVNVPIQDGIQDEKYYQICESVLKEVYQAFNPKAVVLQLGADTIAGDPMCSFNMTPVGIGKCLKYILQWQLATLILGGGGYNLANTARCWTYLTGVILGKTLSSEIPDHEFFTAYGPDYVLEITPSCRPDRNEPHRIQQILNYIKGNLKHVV
Nature of the test: HDAC8 (FDL) Fluor de Lys assay. The format is biochemical. Also on record: obtained from C; Romier (academic laboratory, not a vendor).

Test [3] concerns the target T3, zebrafish HDAC10 (Danio rerio, UniProt F1QCV2).
T3 sequence (F1QCV2 1-675): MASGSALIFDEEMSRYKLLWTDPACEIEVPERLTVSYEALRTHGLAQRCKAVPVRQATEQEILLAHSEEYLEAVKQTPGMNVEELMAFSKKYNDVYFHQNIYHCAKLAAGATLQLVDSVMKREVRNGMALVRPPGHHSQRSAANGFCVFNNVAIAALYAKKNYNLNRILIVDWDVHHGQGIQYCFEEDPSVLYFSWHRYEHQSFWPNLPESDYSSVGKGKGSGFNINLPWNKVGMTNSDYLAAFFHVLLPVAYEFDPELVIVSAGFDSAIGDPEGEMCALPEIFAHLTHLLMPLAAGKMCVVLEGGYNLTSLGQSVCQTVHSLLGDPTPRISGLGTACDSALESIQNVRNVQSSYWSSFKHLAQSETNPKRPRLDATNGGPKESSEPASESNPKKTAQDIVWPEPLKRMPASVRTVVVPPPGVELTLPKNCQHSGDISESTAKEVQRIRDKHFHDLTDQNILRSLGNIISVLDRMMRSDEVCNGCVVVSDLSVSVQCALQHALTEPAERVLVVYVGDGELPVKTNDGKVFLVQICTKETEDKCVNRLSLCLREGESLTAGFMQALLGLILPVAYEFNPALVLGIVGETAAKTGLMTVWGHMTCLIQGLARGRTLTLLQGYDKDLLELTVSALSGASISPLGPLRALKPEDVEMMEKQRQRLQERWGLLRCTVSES
Nature of the test: Zebrafish HDAC10 assay (zHDAC10), Ac-spermidine-AMC substrate. The class given is biochemical.

Test [4] concerns the target T4, HDAC6 (Homo sapiens, UniProt Q9UBN7).
T4 construct: purchased BPS Bioscience 50006
T4 sequence (Q9UBN7 1-1215): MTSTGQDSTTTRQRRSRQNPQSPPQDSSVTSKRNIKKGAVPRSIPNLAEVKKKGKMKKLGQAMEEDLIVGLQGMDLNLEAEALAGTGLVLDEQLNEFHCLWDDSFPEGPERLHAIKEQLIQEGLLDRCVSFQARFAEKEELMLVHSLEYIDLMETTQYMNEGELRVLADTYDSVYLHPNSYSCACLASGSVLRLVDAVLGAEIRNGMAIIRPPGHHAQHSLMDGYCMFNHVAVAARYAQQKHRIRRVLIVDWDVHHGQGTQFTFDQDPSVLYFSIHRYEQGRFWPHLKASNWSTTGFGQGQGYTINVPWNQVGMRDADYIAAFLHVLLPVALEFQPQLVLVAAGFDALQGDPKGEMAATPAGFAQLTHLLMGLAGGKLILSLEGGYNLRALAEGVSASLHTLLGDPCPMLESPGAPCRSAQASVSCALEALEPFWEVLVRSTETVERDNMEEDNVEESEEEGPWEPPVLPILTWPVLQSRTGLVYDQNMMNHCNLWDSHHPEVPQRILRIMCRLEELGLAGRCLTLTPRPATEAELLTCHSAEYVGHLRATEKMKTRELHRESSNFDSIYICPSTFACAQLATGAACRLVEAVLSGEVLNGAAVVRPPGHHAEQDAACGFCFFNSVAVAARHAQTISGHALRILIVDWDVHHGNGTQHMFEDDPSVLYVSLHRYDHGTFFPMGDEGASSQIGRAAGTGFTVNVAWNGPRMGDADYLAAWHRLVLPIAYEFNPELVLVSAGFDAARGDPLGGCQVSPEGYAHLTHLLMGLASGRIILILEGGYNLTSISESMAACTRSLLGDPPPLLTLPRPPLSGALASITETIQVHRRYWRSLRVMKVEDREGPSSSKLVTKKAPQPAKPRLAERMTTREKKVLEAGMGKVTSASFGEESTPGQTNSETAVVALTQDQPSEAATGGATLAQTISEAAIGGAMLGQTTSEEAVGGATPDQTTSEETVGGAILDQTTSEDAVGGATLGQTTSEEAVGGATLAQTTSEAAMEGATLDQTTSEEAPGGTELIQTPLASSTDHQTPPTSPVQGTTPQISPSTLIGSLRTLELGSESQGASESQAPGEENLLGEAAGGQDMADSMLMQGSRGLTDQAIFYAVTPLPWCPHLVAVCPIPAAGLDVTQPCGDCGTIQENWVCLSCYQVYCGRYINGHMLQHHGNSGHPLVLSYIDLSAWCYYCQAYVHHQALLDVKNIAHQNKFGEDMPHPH
Nature of the test: HDAC6 (ZMAL) fluorogenic activity assay. The format is biochemical. The conditions noted are these: read-out: HDAC6 (ZMAL) percent enzyme inhibition.

For test [5], the target named is T5, HDAC10-nanoluciferase fusion in HeLa cells (Homo sapiens, UniProt Q969S8).
T5 sequence (Q969S8 1-669): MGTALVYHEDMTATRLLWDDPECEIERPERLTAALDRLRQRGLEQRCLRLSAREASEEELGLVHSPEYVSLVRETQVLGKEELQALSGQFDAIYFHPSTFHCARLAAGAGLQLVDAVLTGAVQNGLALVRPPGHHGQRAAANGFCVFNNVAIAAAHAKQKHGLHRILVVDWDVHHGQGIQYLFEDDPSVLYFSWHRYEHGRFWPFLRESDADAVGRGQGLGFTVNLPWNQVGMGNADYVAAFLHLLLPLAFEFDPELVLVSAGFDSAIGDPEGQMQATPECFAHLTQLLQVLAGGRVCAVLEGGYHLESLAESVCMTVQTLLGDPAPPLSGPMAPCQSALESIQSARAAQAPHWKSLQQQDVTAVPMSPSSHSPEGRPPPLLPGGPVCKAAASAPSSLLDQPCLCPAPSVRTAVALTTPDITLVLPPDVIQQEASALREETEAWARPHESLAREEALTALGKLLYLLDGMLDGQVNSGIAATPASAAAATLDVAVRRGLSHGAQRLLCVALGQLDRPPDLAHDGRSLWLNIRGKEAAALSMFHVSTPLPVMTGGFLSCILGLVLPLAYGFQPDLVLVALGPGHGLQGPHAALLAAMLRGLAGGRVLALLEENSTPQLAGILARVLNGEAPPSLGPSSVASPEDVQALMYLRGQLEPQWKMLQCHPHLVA
Nature of the test: BRET intracellular target engagement assay, HDAC10.

The target in test [6] is T6, HDAC2 (Homo sapiens, UniProt Q92769).
T6 construct: purchased BPS Bioscience 50002
T6 sequence (Q92769 whole entry): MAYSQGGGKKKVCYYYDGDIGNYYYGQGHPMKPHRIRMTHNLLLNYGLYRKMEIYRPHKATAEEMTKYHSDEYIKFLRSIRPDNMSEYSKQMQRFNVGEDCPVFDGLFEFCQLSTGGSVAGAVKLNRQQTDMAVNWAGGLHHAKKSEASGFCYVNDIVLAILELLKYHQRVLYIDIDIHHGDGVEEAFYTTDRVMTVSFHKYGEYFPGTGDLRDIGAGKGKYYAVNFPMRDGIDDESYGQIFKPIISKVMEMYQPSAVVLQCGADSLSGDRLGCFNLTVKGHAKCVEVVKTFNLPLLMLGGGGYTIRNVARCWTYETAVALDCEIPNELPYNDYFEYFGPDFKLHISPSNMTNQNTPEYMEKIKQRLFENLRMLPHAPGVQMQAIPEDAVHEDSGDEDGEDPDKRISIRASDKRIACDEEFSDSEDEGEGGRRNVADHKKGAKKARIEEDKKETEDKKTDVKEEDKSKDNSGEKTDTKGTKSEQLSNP
Nature of the test: HDAC-Glo I/II assay, HDAC2. As to conditions: recombinant human HDAC2, HDAC-Glo; read-out: pIC50 HDAC2 Glo (converted). The format is biochemical.

Test [7] addresses T1, HDAC1. Nature of the test: HDAC-Glo I/II assay, HDAC1. The format is biochemical. The conditions noted are these: recombinant human HDAC1, HDAC-Glo; read-out: pIC50 HDAC1 Glo (converted).
The target of test [8] is T4, HDAC6. Nature of the test: HDAC-Glo I/II assay, HDAC6. The format is biochemical. As to conditions: recombinant human HDAC6, HDAC-Glo; read-out: pIC50 HDAC6 Glo (converted).
Test [9] has as its target T7, HDAC3/NcoR2 complex (Homo sapiens, UniProt O15379).
T7 construct: purchased BPS Bioscience 50003
Nature of the test: HDAC-Glo I/II assay, HDAC3/NcoR2 complex. The class given is biochemical. The conditions noted are these: recombinant human HDAC3/NcoR2 complex, read-out: pIC50 HDAC3 Glo (converted).

In test [10] the target is T8, TwinStrep-GST-HDAC10 (Homo sapiens, UniProt Q969S8).
T8 construct: made in house; host or cells: Sf21 insect cells (baculovirus, pFastBac1)
T8 sequence (Q969S8 1-669): T5 sequence (Q969S8 1-669)
Nature of the test: HDAC10 TR-FRET assay (Tubastatin-AF647-Tracer displacement). The format is binding. As to conditions: TR-FRET, 60 min at rt; read-out: pIC50 HDAC10 FRET (converted).

Test [11] has as its target T2, HDAC8. Nature of the test: HDAC-Glo I/II assay, HDAC8. As to conditions: recombinant human HDAC8, HDAC-Glo; read-out: pIC50 HDAC8 Glo (converted). The class given is biochemical. The arrangement: purchased BPS Bioscience 50008.

T1 sequence (Q13547 whole entry): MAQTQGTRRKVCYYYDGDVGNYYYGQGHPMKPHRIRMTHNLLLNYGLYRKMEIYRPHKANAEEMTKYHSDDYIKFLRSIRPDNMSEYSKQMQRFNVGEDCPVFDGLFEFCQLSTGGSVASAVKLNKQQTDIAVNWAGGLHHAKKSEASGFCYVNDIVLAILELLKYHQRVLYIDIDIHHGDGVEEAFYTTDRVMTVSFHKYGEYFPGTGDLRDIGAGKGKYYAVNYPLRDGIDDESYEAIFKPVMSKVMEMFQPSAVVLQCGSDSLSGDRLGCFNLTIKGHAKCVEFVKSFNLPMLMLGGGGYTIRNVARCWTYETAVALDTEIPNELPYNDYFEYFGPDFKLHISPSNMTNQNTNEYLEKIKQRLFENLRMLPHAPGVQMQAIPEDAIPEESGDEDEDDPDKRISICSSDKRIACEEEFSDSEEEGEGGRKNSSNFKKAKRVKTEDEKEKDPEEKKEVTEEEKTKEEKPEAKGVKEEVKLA
T7 sequence (O15379 whole entry): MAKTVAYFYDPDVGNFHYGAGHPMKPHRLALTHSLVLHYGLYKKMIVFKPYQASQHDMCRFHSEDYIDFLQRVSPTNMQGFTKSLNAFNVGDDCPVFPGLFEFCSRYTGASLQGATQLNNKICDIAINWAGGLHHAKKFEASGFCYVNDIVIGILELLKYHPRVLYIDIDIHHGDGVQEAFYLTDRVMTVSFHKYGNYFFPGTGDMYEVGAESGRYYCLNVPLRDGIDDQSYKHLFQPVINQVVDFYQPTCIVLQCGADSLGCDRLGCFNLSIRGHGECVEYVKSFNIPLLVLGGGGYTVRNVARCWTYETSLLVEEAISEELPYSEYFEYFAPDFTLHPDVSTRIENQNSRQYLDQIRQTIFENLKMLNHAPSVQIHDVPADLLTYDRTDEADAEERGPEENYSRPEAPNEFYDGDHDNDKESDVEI
T7 sequence (Q9Y618 395-489 partner limits assumed): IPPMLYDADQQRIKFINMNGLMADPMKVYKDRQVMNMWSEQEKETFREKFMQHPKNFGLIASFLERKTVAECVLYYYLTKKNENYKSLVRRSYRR

As to `O=C(NO)C1CCN(CCNCc2ccccc2)CC1` [DH79, 1-(2-(Benzylamino)ethyl)-N-hydroxypiperidine-4-carboxamide], the inhibition at 1 µM in test [1] was 6%; in test [4], -15%. The inhibition at 10 µM is 20% in [1] and 0% in test [4]. Besides, the results for the IC50 in test [2] and in [3] were 2 ± 0.3 µM and 0.064 ± 0.006 µM, respectively.

As to `CN(CCCC(=O)NO)CCc1nc2ccccc2[nH]1` [DKFZ-773, 4-((2-(Benzimidazol-2-yl)ethyl)(methyl)amino)-N-hydroxybutanamide], the IC50 was 0.126 µM in test [5]; 25.1 µM in test [6]; 10 µM in [7]; 1 µM in [8]; over 100 µM in test [9]; 0.00631 µM in test [10]. Also, the IC50 in [11] is 5.01 µM. Besides, the “HDAC10/6 fold selectivity (BRET)” value in [5] (HDAC10 over HDAC6, from BRET) was 315 fold.

With `O=C(NO)C1CCN(CCCc2ccccc2)CC1` [DH53, N-Hydroxy-1-(3-phenylpropyl)-piperidine-4-carboxamide], the inhibition at 1 µM in test [1] was 2%; in test [2] (at 1 μM, read-out: HDAC8 (FDL) percent enzyme inhibition) it was 20%; in test [3] (at 1 μM, read-out: zHDAC10 percent enzyme inhibition) it was 19%; in test [4], -23%. Further, the inhibition at 10 µM in test [1] is 29%; in test [2] (at 10 μM, read-out: HDAC8 (FDL) percent enzyme inhibition), 48%; in [3] (at 10 μM, read-out: zHDAC10 percent enzyme inhibition), 68%; in test [4] it was -3%. Also, the inhibition at 0.1 µM in test [3] (at 0.1 μM, read-out: zHDAC10 percent enzyme inhibition) amounted to 0%.

For `CN(CCCC(=O)NO)CCNC(=O)c1ccccc1Br` [DKFZ-753, 2-Bromo-N-(2-((4-(hydroxyamino)-4-oxobutyl)(methyl)amino)ethyl)benzamide], the IC50 in [6] is over 100 µM; in test [7], 25.1 µM; in test [8], 6.31 µM; in test [9], over 100 µM; in test [10], 0.0158 µM; in [11], 7.94 µM.

On to `CN(CCCC(=O)NO)CCCc1nc2ccccc2[nH]1` [DKFZ-805, 4-((3-(Benzimidazol-2-yl)propyl)(methyl)amino)-N-hydroxybutanamide], for which the IC50 was 50.1 µM in test [6]; about 39.8 µM in [7]; 12.6 µM in test [8]; over 100 µM in test [9]; 0.00794 µM in test [10]; 10 µM in test [11].

In the case of `CN(CCCC(=O)NO)CCNC(=O)c1ccc2ccccc2c1` [DKFZ-769, N-(2-((4-(Hydroxyamino)-4-oxobutyl)(methyl)amino)ethyl)-2-naphthamide], the IC50 in test [6] is 5.01 µM; in test [7], 2.51 µM; in test [8], 1.26 µM; in test [9], about 39.8 µM; in test [10], 0.00501 µM; in test [11], 1.58 µM.

Take `CN(CCCC(=O)NO)CCNC(=O)c1ccccc1O` [DKFZ-755, 2-Hydroxy-N-(2-((4-(hydroxyamino)-4-oxobutyl)(methyl)amino)ethyl)benzamide]: the IC50 was over 100 µM in test [6]; 63.1 µM in [7]; 12.6 µM in test [8]; over 100 µM in test [9]; 0.0316 µM in [10]; 63.1 µM in test [11].

`CN(CCCC(=O)NO)CCNC(=O)c1ccc(O)c2ccccc12` [DKFZ-776, 4-Hydroxy-N-(2-((4-(hydroxyamino)-4-oxobutyl)(methyl)amino)ethyl)-1-naphthamide]: the IC50 in test [6] is 15.8 µM; in test [7] it was 7.94 µM; in [8], 0.631 µM; in [9] it was over 100 µM; in [10], 0.00501 µM; in test [11] it was 2 µM.
